Results as given in patent US5395609A, “Synthetic peptides for use in tumor detection” (Antisoma Limited, priority 1989, dated 1995).
No end group written: not given here.

Test system: metastatic lesions of pelvic melanoma
Assay: Imaging of metastatic lesions in a human patient with pelvic melanoma after intravenous radiolabelled peptide
Type: in vivo
Protocol: 100 micrograms of the peptide […] labelled with technetium were administered intravenously as one single dose to a human patient with a pelvic melanoma which has metastrasised to the liver.

RGDSCRGDSY labelled with technetium: peptide RGDSCRGDSY labelled with technetium (also: labelled with technetium)
uptake of radiolabelled peptide at metastatic lesions, early view (100 micrograms i.v. single dose, FIG. 2): various sites of uptake (arrow) which correspond to the known metastatic lesions
retention of radiolabelled peptide by metastatic lesions (100 micrograms i.v., one hour later, FIG. 3): retention of the radiolabelled peptide by the metastatic lesions
